“And” between values parts separate entries of the source, which are not always exact repeats. Identical values can stand only once. Like-named read-outs stand apart in the source and are kept apart here.
What was measured:
Plasmodium falciparum = test: In vitro drug screening model against Plasmodium falciparum (drug sensitivity assay, Malstat LDH read-out); format: cell-based; details: for IC50: Plasmodium falciparum; for score: score in brackets after the IC50, scale not defined
Procedure: Malaria: In Vitro Drug Screening Model Against Plasmodium falciparum
Two strains of P. falciparum were used: 1/GHA strain (P. falGHA), derived from a Ghanese patient and chloroquine sensitive and 2/W-2 strain (P.falW2) from CDC/Indochina III and resistant to chloroquine, quinine, pyrimethamine, but susceptible to mefloquine. The strains were maintained in RPMI-1640 medium supplemented with 0.37 mM hypoxanthine, 25 mM Hepes, 25 mM NaHCO3, and 10% O+ human serum together with 2-4% washed human O+ erythrocytes (Adaptation of the procedures described by Trager, W.; Jensen J. B. Science 1976, 193, 673-677). All cultures and assays were conducted at 37° C. under an atmosphere of 4% CO2, 3% O2 and 93% N2.
Compound stock solutions were prepared in 100% DMSO at 20 mM or mg/ml (Concentrations are standard expressed in molar concentrations). The compounds were serially pre-diluted (2-fold or 4-fold) in DMSO followed by a further (intermediate) dilution in demineralized water to assure a final in-test DMSO concentration of <1%.
Assays were performed in sterile 96-well microtiter plates, each well containing 10 μl of the watery compound dilutions together with 190 μl of the malaria parasite inoculum (1% parasitaemia, 2% HCT). Parasite growth was compared to untreated-infected (100% growth) and uninfected-controls (0% growth). After 72 h incubation at 37° C., plates were frozen at −20° C. After thawing, 20 μl of each well was transferred into another plate together with 100 μl Malstat reagent (Lactate dehydrogenase (LDH)-test, according to Makler et al.: Am. J. Trop Med. Hyg, 48, 7339-741, 1993) and 20 μl of a 1/1 mixture of PES (phenazine ethosulfat, 0.1 mg/ml) and NBT (NitroBlue Tetrazolium Grade III, 2 mg/ml). The plates were kept out of light for 2 hours and change in color was measured spectrophotometrically at 655 nm. The results were expressed as % reduction in parasitaemia compared to control wells. For each compound, an IC50 was calculated.
The GHA strain was used. Compounds were tested at 5 concentrations (64-16-4-1 and 0.25 μM or μg/ml). […] Some of the compounds were evaluated in a secondary screening.
Additional strains (GHA, W2, D6, NF54) were included and the IC50-values were determined using an extended dose range (2-fold compound dilutions). Artesunate and chloroquine were included as reference drugs.

[1] = test system: other strains of parasites; test: Activity against other strains of parasites (selectivity); format: cell-based
[2] = Table 2, P. falciparum, strain not given, 72 h incubation, read-out: IC50

Compound | IC50 (Plasmodium falciparum; [2]) | melting point | IC50 (Plasmodium falciparum; 72 h) | score (Plasmodium falciparum; Table 2) | activity against some other strains of parasites (selectivity compared to chloroquine) [1]
C[C@H]1[C@H](OC(=O)CCC(=O)O)O[C@@H]2O[C@@]3(C)CC[C@H]4[C@H](C)CC[C@@H]1[C@@]24OO3 [Artesunate, reference compound] |  |  | 5 nM |  | 
CCN(CC)CCCC(C)Nc1ccnc2cc(Cl)ccc12 (stereo not drawn) [Chloroquine, chloroquine, reference compound] |  |  | 50 nM and 0.04 µg/mL |  | 
c1ccc2[nH]c(-c3ccc(OCCCCCCCOc4ccc(-c5nc6ccccc6[nH]5)cc4)cc3)nc2c1 [Compound 5, 2,2′-[1,7-heptanediylbis(oxy-1,4-phenylene)]bis-1H-benzimidazole] |  | 298 to 301 °C |  |  | 
c1cc(OCCCCCOc2cccc(-c3nc4ccccc4[nH]3)c2)cc(-c2nc3ccccc3[nH]2)c1 [Compound 6, 2,2′-[1,5-pentanediylbis(oxy-1,3-phenylene)]bis-1H-benzimidazole] | 3.91 µg/mL | 240 to 243 °C |  | 2 | 
c1ccc(-c2nc3ccccc3[nH]2)c(OCCCCCOc2ccccc2-c2nc3ccccc3[nH]2)c1 [Compound 7, 2,2′-[1,5-pentanediylbis(oxy-1,2-phenylene)]bis-1H-benzimidazole] | 8.31 µg/mL | 190 to 193 °C |  | 2 | 

Continued, in another order:

IC50 (Plasmodium falciparum; [2]) | melting point | Compound | IC50 (Plasmodium falciparum; 72 h) | score (Plasmodium falciparum; Table 2) | activity against some other strains of parasites (selectivity compared to chloroquine) [1]
16.6 µg/mL | > 300 °C | c1ccc2[nH]c(-c3ccc(OCCCOc4ccc(-c5nc6ccccc6[nH]5)cc4)cc3)nc2c1 [Compound 1, 2,2′-[1,3-propanediylbis(oxy-1,4-phenylene)]bis-1H-benzimidazole] |  | 1 | 
 | > 300 °C | c1ccc2[nH]c(-c3ccc(OCCCCOc4ccc(-c5nc6ccccc6[nH]5)cc4)cc3)nc2c1 [Compound 2, 2,2′-[1,4-butanediylbis(oxy-1,4-phenylene)]bis-1H-benzimidazole] |  |  | 
0.49 µg/mL | > 300 °C | c1ccc2[nH]c(-c3ccc(OCCCCCOc4ccc(-c5nc6ccccc6[nH]5)cc4)cc3)nc2c1 [Compound 3, 2,2′-[1,5-pentanediylbis(oxy-1,4-phenylene)]bis-1H-benzimidazole] |  | 3 | not active
 | > 300 °C | c1ccc2[nH]c(-c3ccc(OCCCCCCOc4ccc(-c5nc6ccccc6[nH]5)cc4)cc3)nc2c1 [Compound 4, 2,2′-[1,6-hexanediylbis(oxy-1,4-phenylene)]bis-1H-benzimidazole] |  |  | 
